Laboratory results taken from US6262073A, “Pharmaceutical methods of use of 5-substituted and 5,5 disubstituted-3,4-dihydroxy-2(5H)-furanones” (Oxis International Inc., priority 2000, dated 2001).

molecular target: T1, Cyclooxygenase-1 (cyclooxygenase from ram seminal vesicles) (Ovis aries, UniProt P05979); assay: Cyclooxygenase-1 screen (COX-1); assay type: biochemical; conditions: 300 μM
T1 construct: cyclooxygenase from ram seminal vesicles; from tissue; host or cells: ram seminal vesicles
T1 sequence (P05979 25-600): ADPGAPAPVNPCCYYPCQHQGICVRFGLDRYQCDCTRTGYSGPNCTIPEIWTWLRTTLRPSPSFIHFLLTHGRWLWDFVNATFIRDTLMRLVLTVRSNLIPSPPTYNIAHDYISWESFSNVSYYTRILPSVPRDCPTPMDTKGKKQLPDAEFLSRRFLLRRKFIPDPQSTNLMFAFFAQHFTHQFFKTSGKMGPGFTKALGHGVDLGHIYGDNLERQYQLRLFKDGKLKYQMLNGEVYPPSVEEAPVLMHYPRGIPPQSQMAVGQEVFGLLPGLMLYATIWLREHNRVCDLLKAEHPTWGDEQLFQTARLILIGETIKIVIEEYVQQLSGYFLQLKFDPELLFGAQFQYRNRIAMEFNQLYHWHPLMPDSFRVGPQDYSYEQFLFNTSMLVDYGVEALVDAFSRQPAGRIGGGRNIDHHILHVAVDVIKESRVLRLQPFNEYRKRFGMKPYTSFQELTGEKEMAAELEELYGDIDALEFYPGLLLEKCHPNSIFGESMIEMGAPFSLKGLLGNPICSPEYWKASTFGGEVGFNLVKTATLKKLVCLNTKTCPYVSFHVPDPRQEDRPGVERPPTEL
Description: (§1) The compounds of the invention were screened for their anti-inflammatory activity using a series of in vitro tests the details of which are given below. The activity of various compounds against 5-lipoxygenase, cycloxygenase-1, cycloxygenase-2 and lipid peroxidase was evaluated. Results of the screening procedures are included in TABLE I, and the activity against 5-lipoxygenase at a test concentration of 1 μM in Table II.
Cyclooxygenase-1 is involved in the formation of prostaglandins and thromboxane via the oxidative metabolism of arachidonic acid. Briefly, cyclooxygenase from ram seminal vesicles is incubated with arachidonic acid (100 μm) for 2 minutes at 37° C. in the presence or absence of test compounds according to the methods of A. T. Evans et al., Biochem. Pharm. 36:2035-2037(1987) and R. Boopathy et al., Biochem J. 239:371-377 (1968). The assay is terminated by the addition of trichioroacetic acid and cyclooxygenase activity is determined by reading the absorbance at 530 nm. […]

In order of falling COX-1 percent inhibition:
1. CCCCCSCc1ccccc1C#CCCC1OC(=O)C(O)=C1O (centres unmarked) [Example 34, 3,4-Dihydroxy-5-[(4-(2-(1-pentylthio)methyl)phenyl)-3-butynyl]-2(5H)-furanone]  67%
2. O=C1OC(CCOc2ccc(-c3ccccc3)cc2)C(O)=C1O (centres unmarked) [Example 22, 5-[2-((1,1'-Biphenyl)-4-oxy)ethyl]-3,4-dihydroxy-2(5H)-furanone]  18%
3. O=C1OC(CCOc2ccc3oc(-c4ccccc4)cc(=O)c3c2)C(O)=C1O (centres unmarked) [Example 16, 3,4-Dihydroxy-5-[2-(flavone-6-oxy)ethyl]-2(5H)-furanone]  17%
4. O=C1OC(CCOc2ccccc2Cc2ccccc2)C(O)=C1O (centres unmarked) [Example 21, 3,4-Dihydroxy-5-[2-(diphenylmethane-2-oxy)ethyl]-2(5H)-furanone]  12%
5. O=C1OC(CCN2c3cccc4cccc(c34)S2(=O)=O)C(O)=C1O (centres unmarked) [Example 20, 3,4-Dihydroxy-5-[2-(1,8-naphthosultam)-N-ethyl]-2(5H)-furanone]  -15%

molecular target: T2, Cyclooxygenase-2 (prostaglandin H synthetase-2) from sheep placenta (Ovis aries, UniProt P79208); assay: Cyclooxygenase-2 screen (COX-2); assay type: biochemical; conditions: read-out: COX-2 percent inhibition
T2 construct: cyclooxygenase-2 from sheep placenta; from tissue; host or cells: sheep placenta
T2 sequence (P79208 17-603): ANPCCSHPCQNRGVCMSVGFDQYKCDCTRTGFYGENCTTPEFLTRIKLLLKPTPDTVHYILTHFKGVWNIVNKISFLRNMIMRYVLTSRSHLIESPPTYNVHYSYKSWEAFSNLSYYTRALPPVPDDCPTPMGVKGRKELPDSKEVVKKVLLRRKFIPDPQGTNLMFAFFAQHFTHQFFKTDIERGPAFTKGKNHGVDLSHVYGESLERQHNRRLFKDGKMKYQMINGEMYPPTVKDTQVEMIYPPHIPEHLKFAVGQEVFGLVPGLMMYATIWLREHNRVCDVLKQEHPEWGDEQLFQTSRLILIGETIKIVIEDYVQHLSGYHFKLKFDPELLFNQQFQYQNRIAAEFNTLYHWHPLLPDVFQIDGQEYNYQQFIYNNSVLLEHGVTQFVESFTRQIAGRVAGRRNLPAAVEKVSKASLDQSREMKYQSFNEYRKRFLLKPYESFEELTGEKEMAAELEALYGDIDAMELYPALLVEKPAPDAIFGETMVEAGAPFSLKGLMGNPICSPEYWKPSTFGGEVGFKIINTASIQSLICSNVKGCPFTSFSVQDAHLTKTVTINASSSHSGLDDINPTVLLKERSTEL
Description: as §1
Cyclooxygenase-2, also known as prostaglandin H synthetase-2, catalyzes the rate- limiting step in the synthesis of inflammatory prostaglandins. In this reaction cyclooxygenase-2 catalyzes the oxygenation of unesterified precursors to form cyclic endoperoxide derivatives, including prostaglandin H. Briefly, cyclooxygenase-2 from sheep placenta, 14 μg/assay tube, is incubated with arachidonic acid (500 μM) for 1.5 minutes at 27° C. in the absence or presence of test compounds according to the methods of A. T. Evans, et al., Biochem Pharm. […] Res. Comm. […] Compounds are screened at 300 μM.

In order of rising inhibition at 300 µM:
1. O=C1OC(CCOc2ccc3oc(-c4ccccc4)cc(=O)c3c2)C(O)=C1O (centres unmarked) [Example 16, 3,4-Dihydroxy-5-[2-(flavone-6-oxy)ethyl]-2(5H)-furanone]  2%
2. O=C1OC(CCOc2ccc(-c3ccccc3)cc2)C(O)=C1O (centres unmarked) [Example 22, 5-[2-((1,1'-Biphenyl)-4-oxy)ethyl]-3,4-dihydroxy-2(5H)-furanone]  10%
3. O=C1OC(CCOc2ccccc2Cc2ccccc2)C(O)=C1O (centres unmarked) [Example 21, 3,4-Dihydroxy-5-[2-(diphenylmethane-2-oxy)ethyl]-2(5H)-furanone]  10%
4. O=C1OC(CCN2c3cccc4cccc(c34)S2(=O)=O)C(O)=C1O (centres unmarked) [Example 20, 3,4-Dihydroxy-5-[2-(1,8-naphthosultam)-N-ethyl]-2(5H)-furanone]  13%
5. CCCCCSCc1ccccc1C#CCCC1OC(=O)C(O)=C1O (centres unmarked) [Example 34, 3,4-Dihydroxy-5-[(4-(2-(1-pentylthio)methyl)phenyl)-3-butynyl]-2(5H)-furanone]  43%

molecular target: T3, 5-Lipoxygenase (crude enzyme preparation from rat basophilic leukemia cells, RBL-1) (Rattus norvegicus, UniProt P12527); assay: 5-Lipoxygenase screen (5-LO), 5-HETE by RIA; assay type: biochemical; conditions: 30 μM; read-out: 5-LO percent inhibition
T3 construct: crude enzyme preparation from rat basophilic leukemia cells (RBL-1); endogenous in cells; host or cells: rat basophilic leukemia cells (RBL-1)
T3 sequence (P12527 1-673): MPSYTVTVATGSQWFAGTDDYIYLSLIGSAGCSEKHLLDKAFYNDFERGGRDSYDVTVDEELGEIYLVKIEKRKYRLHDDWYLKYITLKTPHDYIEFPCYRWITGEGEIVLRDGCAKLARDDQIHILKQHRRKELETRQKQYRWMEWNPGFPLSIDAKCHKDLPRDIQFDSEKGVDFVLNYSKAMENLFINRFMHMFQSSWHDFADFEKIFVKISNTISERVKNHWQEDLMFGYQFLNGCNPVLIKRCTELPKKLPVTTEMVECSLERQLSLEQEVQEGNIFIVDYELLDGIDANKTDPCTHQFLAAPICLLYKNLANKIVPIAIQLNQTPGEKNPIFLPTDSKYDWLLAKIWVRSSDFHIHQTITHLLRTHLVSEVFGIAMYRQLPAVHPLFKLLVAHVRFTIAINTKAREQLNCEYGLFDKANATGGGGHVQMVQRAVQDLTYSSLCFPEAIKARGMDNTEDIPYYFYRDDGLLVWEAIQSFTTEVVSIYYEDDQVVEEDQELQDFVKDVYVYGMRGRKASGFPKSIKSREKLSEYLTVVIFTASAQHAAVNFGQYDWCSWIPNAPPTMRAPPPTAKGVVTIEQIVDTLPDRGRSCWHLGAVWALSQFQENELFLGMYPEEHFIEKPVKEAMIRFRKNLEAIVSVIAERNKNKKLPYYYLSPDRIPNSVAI
Description: as §1
5-Lipoxygenase catalyzes the oxidative metabolism of arachidonic acid to […] (5-HETE), the initial reaction leading to the formation of the leukotrienes. Briefly, the testing procedure utilizes a crude enzyme preparation from rat basophilic leukemia cells (RBL-1) according to the methods of T. Shimuzu et al. Pro. […] Test compounds are pre-incubated with the enzyme preparation for 5 minutes at room temperature and the reaction is initiated by the addition of arachidonic acid. Following an 8 minute incubation at room temperature, the reaction is terminated by the addition of citric acid and concentrations of 5-HETE are determined by RIA. Compounds are screened at 30 μM.

In order of falling inhibition at 30 µM:
1. O=C1OC(CCOc2ccccc2Cc2ccccc2)C(O)=C1O (centres unmarked) [Example 21, 3,4-Dihydroxy-5-[2-(diphenylmethane-2-oxy)ethyl]-2(5H)-furanone]  101%
2. O=C1OC(CCOc2ccc3oc(-c4ccccc4)cc(=O)c3c2)C(O)=C1O (centres unmarked) [Example 16, 3,4-Dihydroxy-5-[2-(flavone-6-oxy)ethyl]-2(5H)-furanone]  100%
3. O=C1OC(CCOc2ccc(-c3ccccc3)cc2)C(O)=C1O (centres unmarked) [Example 22, 5-[2-((1,1'-Biphenyl)-4-oxy)ethyl]-3,4-dihydroxy-2(5H)-furanone]  99%
4. CCCCCSCc1ccccc1C#CCCC1OC(=O)C(O)=C1O (centres unmarked) [Example 34, 3,4-Dihydroxy-5-[(4-(2-(1-pentylthio)methyl)phenyl)-3-butynyl]-2(5H)-furanone]  92%
5. O=C1OC(CCN2c3cccc4cccc(c34)S2(=O)=O)C(O)=C1O (centres unmarked) [Example 20, 3,4-Dihydroxy-5-[2-(1,8-naphthosultam)-N-ethyl]-2(5H)-furanone]  91%

same assay, conditions: Table I cell printed "@1" instead of the 30 μM of the head

Work on O=C1OC(CCC#Cc2cc(Cc3ccc(F)cc3)cs2)C(O)=C1O (centres unmarked) [Example 36, 3,4-Dihydroxy-5-[2-(4-(4-fluorophenylmethyl)thiophene)-(3-butynyl)]-2(5H)-furanone] yielded a 5-LO percent inhibition of 85%.

same assay, conditions: Table II

Molecule O=C1OC(CCC#Cc2cc(Cc3ccc(F)cc3)cs2)C(O)=C1O (centres unmarked) [Example 36, 3,4-Dihydroxy-5-[2-(4-(4-fluorophenylmethyl)thiophene)-(3-butynyl)]-2(5H)-furanone] has an IC50 of 0.16 µM.

same assay, conditions: read-out: Percent inhibition of 5-LO; test conc. 1 μM (Table II)

In order of falling inhibition at 1 µM:
1. O=C1OC(CCOc2ccccc2Cc2ccccc2)C(O)=C1O (centres unmarked) [Example 21, 3,4-Dihydroxy-5-[2-(diphenylmethane-2-oxy)ethyl]-2(5H)-furanone]  62%
2. O=C1OC(CCOc2ccc(-c3ccccc3)cc2)C(O)=C1O (centres unmarked) [Example 22, 5-[2-((1,1'-Biphenyl)-4-oxy)ethyl]-3,4-dihydroxy-2(5H)-furanone]  55%
3. O=C1OC(CCOc2ccc3oc(-c4ccccc4)cc(=O)c3c2)C(O)=C1O (centres unmarked) [Example 16, 3,4-Dihydroxy-5-[2-(flavone-6-oxy)ethyl]-2(5H)-furanone]  54%
4. O=C1OC(CCN2c3cccc4cccc(c34)S2(=O)=O)C(O)=C1O (centres unmarked) [Example 20, 3,4-Dihydroxy-5-[2-(1,8-naphthosultam)-N-ethyl]-2(5H)-furanone]  38%

same assay, conditions: test conc. 1 μM (Table II)

For O=C1OC(CCC#Cc2cc(Cc3ccc(F)cc3)cs2)C(O)=C1O (centres unmarked) [Example 36, 3,4-Dihydroxy-5-[2-(4-(4-fluorophenylmethyl)thiophene)-(3-butynyl)]-2(5H)-furanone], the “Percent inhibition of 5-LO” value was 91%.

tested on: Lipid peroxidation (rat liver microsomes); assay: Lipid peroxidation screen (LPO), CCl4-induced, liver microsomes; assay type: biochemical; conditions: 300 μM
Description: as §1
Lipid peroxidation is a consequence of various stimuli, including reactive free radicals. Polyunsaturated fatty acids associated with plasma membranes are degraded due to enzymatic induction by reactive agents such as CCl4, leading to cellular damage. Briefly, microsomes are prepared from rat livers and the protein concentration is determined according to the method of D. Mansuy et al., Biochem. Biophys. Res. Comm. 135:1015-1021(1986). A reaction mixture consisting of 2 mg of the microsomal preparation, an NADPH generating system, 20 mM CCl4 and test compound are incubated for 12 minutes at 37° C. The reaction is terminated by the addition of a mixture of thiobarbituric acid and trichloroacetic acid. The absorbance is read at 535 nm and is proportional to the concentration of malondialdehyde. Compounds are screened at 300 μM.

In order of falling LPO percent inhibition:
1. O=C1OC(CCOc2ccc3oc(-c4ccccc4)cc(=O)c3c2)C(O)=C1O (centres unmarked) [Example 16, 3,4-Dihydroxy-5-[2-(flavone-6-oxy)ethyl]-2(5H)-furanone]  76%
2. O=C1OC(CCOc2ccc(-c3ccccc3)cc2)C(O)=C1O (centres unmarked) [Example 22, 5-[2-((1,1'-Biphenyl)-4-oxy)ethyl]-3,4-dihydroxy-2(5H)-furanone]  74%
3. O=C1OC(CCOc2ccccc2Cc2ccccc2)C(O)=C1O (centres unmarked) [Example 21, 3,4-Dihydroxy-5-[2-(diphenylmethane-2-oxy)ethyl]-2(5H)-furanone]  68%
4. CCCCCSCc1ccccc1C#CCCC1OC(=O)C(O)=C1O (centres unmarked) [Example 34, 3,4-Dihydroxy-5-[(4-(2-(1-pentylthio)methyl)phenyl)-3-butynyl]-2(5H)-furanone]  63%
5. O=C1OC(CCN2c3cccc4cccc(c34)S2(=O)=O)C(O)=C1O (centres unmarked) [Example 20, 3,4-Dihydroxy-5-[2-(1,8-naphthosultam)-N-ethyl]-2(5H)-furanone]  61%

tested on: Nuclear Factor-kappa B (NF-κB); assay: NF-κB lacZ (κB-Z) reporter assay in transfected Jurkat cells stimulated with A23187 and PMA; assay type: cell-based, human; conditions: 10 μM; κB-Z Jurkat cells, A23187 and PMA (Table III)
Description: The human T lymphoid cell line Jurkat was transfected with a response element lacZ reporter in which transcription of the β-galactosidase gene is directed by the binding site for the NF-κB transcription factor. […] At the end of the incubation, the cells are spun down and resuspended in the buffer and FDG (fluorescein di-β-D-galactopyranoside) solution. The covered plates are further incubated in the dark for 16 hours at 25° C. […] Compounds were screened at 10 μM.

For O=C1OC(CCC#Cc2cc(Cc3ccc(F)cc3)cs2)C(O)=C1O (centres unmarked) [Example 36, 3,4-Dihydroxy-5-[2-(4-(4-fluorophenylmethyl)thiophene)-(3-butynyl)]-2(5H)-furanone], the NF-κB percent inhibition was 61%.

same assay, conditions: Table III

In the case of O=C1OC(CCC#Cc2cc(Cc3ccc(F)cc3)cs2)C(O)=C1O (centres unmarked) [Example 36, 3,4-Dihydroxy-5-[2-(4-(4-fluorophenylmethyl)thiophene)-(3-butynyl)]-2(5H)-furanone], the IC50 is reported as 6 µM.
